Data from publication PMC4927298, “Olfactory channels associated with the Drosophila maxillary palp mediate short- and long-range attraction” (eLife, 2016).

Key:
[1] = target: T1, Or71a (pb1B) (Drosophila melanogaster, UniProt Q9VUK5); assay: single sensillum recording (SSR), dose-response; conditions: native pb1B neuron, agonist; odor dilution
T1 construct: native receptor in pb1B maxillary palp neuron of wild-type flies; with Odorant receptor coreceptor
T1 sequence (Q9VUK5 1-378): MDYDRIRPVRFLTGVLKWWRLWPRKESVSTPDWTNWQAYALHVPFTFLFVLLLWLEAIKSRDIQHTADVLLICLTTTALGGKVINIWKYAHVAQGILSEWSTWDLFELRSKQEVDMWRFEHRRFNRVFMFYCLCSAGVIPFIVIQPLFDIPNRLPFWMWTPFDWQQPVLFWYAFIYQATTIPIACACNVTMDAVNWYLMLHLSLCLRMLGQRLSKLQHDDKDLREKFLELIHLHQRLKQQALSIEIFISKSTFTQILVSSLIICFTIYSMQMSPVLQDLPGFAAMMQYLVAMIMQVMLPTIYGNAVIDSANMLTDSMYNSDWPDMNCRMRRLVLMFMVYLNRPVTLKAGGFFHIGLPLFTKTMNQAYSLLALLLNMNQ
T1 sequence (Q9VNB5 1-486 partner): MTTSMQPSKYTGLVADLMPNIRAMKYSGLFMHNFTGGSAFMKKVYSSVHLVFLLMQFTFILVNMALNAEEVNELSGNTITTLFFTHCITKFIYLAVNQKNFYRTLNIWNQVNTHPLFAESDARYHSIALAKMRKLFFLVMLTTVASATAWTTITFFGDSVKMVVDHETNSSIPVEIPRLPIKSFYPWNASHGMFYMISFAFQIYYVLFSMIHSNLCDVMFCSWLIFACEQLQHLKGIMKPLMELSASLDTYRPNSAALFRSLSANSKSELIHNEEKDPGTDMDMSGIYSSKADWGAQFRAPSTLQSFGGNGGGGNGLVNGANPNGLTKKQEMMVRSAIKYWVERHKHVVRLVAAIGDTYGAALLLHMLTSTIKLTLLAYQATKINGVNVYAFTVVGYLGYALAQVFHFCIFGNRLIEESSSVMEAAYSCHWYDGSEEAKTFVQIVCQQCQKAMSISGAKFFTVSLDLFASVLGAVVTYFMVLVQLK
Description: single sensillum recording (SSR), dose-response on Or71a (pb1B)

[2] = target: T2, Or85a (Drosophila melanogaster, UniProt Q9VHS4); assay: SSR and GC-SSR, dose-response; conditions: native antennal ab2B neuron, agonist; odor dilution
T2 construct: native receptor in antennal ab2B neuron of wild-type flies; with Odorant receptor coreceptor
T2 sequence (Q9VHS4 1-397): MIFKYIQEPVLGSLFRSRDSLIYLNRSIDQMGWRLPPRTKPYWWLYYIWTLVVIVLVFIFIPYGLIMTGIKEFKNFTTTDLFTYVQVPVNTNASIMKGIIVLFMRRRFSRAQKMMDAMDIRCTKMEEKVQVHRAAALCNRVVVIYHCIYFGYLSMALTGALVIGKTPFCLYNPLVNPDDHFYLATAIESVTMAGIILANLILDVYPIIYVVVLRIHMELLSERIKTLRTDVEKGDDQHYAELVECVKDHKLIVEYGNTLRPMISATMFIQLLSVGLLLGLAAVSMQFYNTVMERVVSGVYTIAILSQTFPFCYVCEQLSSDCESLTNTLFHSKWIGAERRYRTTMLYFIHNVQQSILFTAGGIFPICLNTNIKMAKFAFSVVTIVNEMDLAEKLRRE
T2 sequence (Q9VNB5 1-486 partner): T1 sequence (Q9VNB5 1-486 partner)

[3] = target: T3, Or59c (pb3A) (Drosophila melanogaster, UniProt Q9W1P7); assay: single sensillum recording (SSR), dose-response; conditions: native pb3A neuron, agonist; odor dilution
T3 construct: native receptor in pb3A maxillary palp neuron of wild-type flies; with Odorant receptor coreceptor
T3 sequence (Q9W1P7 1-411): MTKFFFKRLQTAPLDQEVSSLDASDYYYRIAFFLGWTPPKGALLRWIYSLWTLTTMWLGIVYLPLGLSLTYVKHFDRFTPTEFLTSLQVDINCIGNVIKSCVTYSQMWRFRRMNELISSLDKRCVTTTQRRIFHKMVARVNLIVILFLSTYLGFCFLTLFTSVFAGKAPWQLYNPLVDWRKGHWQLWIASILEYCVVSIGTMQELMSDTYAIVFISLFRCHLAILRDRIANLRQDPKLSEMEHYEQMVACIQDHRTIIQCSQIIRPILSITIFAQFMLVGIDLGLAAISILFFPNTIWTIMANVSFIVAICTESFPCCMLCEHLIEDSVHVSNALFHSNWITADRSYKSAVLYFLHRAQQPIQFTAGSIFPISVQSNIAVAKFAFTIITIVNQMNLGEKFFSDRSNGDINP
T3 sequence (Q9VNB5 1-486 partner): T1 sequence (Q9VNB5 1-486 partner)
Description: single sensillum recording (SSR), dose-response on Or59c (pb3A)

[4] = target: T4, Or85d (pb3B) (Drosophila melanogaster, UniProt Q9VHQ2); assay: single sensillum recording (SSR), dose-response; conditions: native pb3B neuron, agonist; odor dilution
T4 construct: native receptor in pb3B maxillary palp neuron of wild-type flies; with Odorant receptor coreceptor
T4 sequence (Q9VHQ2 1-412): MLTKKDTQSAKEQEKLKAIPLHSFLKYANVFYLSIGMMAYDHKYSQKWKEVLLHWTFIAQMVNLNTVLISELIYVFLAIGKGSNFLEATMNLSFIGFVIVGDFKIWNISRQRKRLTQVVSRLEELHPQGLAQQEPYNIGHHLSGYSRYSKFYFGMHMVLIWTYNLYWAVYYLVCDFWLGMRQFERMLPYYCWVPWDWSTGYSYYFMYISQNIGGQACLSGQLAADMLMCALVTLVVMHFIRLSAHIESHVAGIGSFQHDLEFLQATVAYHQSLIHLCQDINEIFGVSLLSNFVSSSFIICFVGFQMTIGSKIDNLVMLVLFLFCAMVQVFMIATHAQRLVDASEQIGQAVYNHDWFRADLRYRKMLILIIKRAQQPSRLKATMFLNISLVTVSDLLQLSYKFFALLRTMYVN
T4 sequence (Q9VNB5 1-486 partner): T1 sequence (Q9VNB5 1-486 partner)
Description: single sensillum recording (SSR), dose-response on Or85d (pb3B)

[5] = target: T5, Or42a (pb1A) (Drosophila melanogaster, UniProt Q9V9I2); assay: single sensillum recording (SSR), dose-response; conditions: native pb1A neuron, agonist; odor dilution
T5 construct: native receptor in pb1A maxillary palp neuron of wild-type flies; neuron-receptor match not tested by expression; with Odorant receptor coreceptor
T5 sequence (Q9V9I2 1-406): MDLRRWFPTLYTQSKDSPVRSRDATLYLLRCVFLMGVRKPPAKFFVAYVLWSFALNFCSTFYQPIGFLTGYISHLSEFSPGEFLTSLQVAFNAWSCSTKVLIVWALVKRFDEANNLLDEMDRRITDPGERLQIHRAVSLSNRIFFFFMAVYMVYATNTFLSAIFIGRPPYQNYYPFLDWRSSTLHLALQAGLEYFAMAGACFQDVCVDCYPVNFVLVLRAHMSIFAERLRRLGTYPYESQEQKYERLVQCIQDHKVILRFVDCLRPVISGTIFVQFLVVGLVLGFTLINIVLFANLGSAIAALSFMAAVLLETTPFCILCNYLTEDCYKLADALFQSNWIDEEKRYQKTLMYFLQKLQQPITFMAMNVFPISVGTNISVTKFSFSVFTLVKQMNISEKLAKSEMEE
T5 sequence (Q9VNB5 1-486 partner): T1 sequence (Q9VNB5 1-486 partner)
Description: single sensillum recording (SSR), dose-response on Or42a (pb1A)

[6] = target: T6, Or67a (Drosophila melanogaster, UniProt Q9VT08); assay: SSR and GC-SSR, dose-response; conditions: native antennal neuron, agonist; odor dilution
T6 construct: native receptor in antennal neuron (ab10) of wild-type flies; with Odorant receptor coreceptor
T6 sequence (Q9VT08 1-407): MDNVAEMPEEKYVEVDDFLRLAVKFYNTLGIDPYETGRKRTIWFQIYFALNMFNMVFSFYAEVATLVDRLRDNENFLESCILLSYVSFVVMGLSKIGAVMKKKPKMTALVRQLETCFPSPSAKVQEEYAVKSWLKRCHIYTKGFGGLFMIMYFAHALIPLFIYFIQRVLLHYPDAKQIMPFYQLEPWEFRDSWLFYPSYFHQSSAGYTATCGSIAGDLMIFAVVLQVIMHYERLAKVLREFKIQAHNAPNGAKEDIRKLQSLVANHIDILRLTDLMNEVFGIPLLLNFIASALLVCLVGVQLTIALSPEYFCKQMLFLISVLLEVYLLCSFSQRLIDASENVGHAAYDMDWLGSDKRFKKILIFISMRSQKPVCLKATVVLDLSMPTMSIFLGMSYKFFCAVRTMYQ
T6 sequence (Q9VNB5 1-486 partner): T1 sequence (Q9VNB5 1-486 partner)

[7] = target: T7, Or46a (pb2B) (Drosophila melanogaster, UniProt P81919); assay: single sensillum recording (SSR), dose-response; conditions: native pb2B neuron, agonist; odor dilution
T7 construct: native receptor in pb2B maxillary palp neuron of wild-type flies; with Odorant receptor coreceptor
T7 sequence (P81919 1-381): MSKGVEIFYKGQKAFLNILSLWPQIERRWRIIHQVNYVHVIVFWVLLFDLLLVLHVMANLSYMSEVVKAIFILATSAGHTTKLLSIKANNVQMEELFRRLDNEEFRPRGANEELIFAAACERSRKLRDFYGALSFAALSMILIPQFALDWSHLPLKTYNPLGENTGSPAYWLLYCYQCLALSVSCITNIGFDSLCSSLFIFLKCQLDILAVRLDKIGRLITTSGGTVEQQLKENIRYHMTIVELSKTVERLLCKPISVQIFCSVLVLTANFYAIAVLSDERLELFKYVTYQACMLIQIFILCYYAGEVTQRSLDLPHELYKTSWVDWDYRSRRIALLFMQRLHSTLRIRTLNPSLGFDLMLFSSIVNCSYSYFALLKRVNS
T7 sequence (Q9VNB5 1-486 partner): T1 sequence (Q9VNB5 1-486 partner)
Description: single sensillum recording (SSR), dose-response on Or46a (pb2B)

C=CCc1ccc(OC)c(OC)c1 [Methyleugenol]
Detection threshold [1]: 10^-7 dilution

CCCCOC(=O)CC(C)O (stereo not drawn) [Butyl 3-hydroxy butyrate]
Detection threshold [2]: 10^-5 dilution | Detection threshold [3]: 10^-4 dilution

CCc1ccc(O)c(OC)c1 [4-ethylguaiacol]
Detection threshold [1]: 10^-7 dilution

CC(=O)OCCc1ccccc1 [2-Phenethyl acetate]
Detection threshold [4]: 10^-7 dilution

C=CCC(=O)CC [5-hexen-3-one]
Detection threshold [5]: 10^-7 dilution

CCC(=O)OCCc1ccccc1 [Phenethyl propionate]
Detection threshold [4]: 10^-7 dilution | Detection threshold [6]: 10^-5 dilution

Oc1ccccc1 [Phenol]
Detection threshold [7]: 10^-7 dilution
